Results taken from US20110082080A1, “COMPOSITIONS AND METHODS OF USING THE HUMAN PROISLET PEPTIDE RECEPTOR” (CUREDM GROUP HOLDINGS, LLC, priority 2007, published 2011).
Where no end group is shown, it is not given here.

Tests used:
[1] = system: NOD mice; experiment: Pilot non obese diabetic (NOD) mouse study with lysophylline (LSF); type: in vivo; conditions: one NOD mouse per group; peptides given plus LSF; not statistically significant study; FIG. 11
Source text: The non obese diabetic (NOD) model is used as a model for type 1 autoimmune diabetes. This form of diabetes is the most challenging in that the underlying damage to the pancreas and its insulin production is due to autoimmune attack. Therefore, in order to show definitive islet neogenesis in this form of diabetes an immune tolerance agent must be used in combination with HIP. The NOD mouse model is extremely difficult model because many of the mice may only transiently become diabetic and go into remission, whereas others develop severe diabetes. The timing intervention in this transgenic mouse model is difficult to determine.
In a preliminary study that utilizing the immune tolerance agent, lysophylline (LSF) under development, three NOD mice that became diabetic and were randomized to placebo plus LSF, HIP2 plus LSF and HIP2B plus LSF.

[2] = system: PANC-1 cells; experiment: Impact of HIP and Optimized HIP peptides on PANC-1 cell morphology; type: cell-based, human; conditions: treated four days; for cell morphology changes through 7 days: pictures days 1, 2, 3, 5, 7 at 200×, FIG. 9B
Procedure: The cells were treated with HIP and Optimized HIP peptides for four days. […] FIG. 9B show the progression of the cell morphology changes through 7 days, with the control on the top, HIP2 in the middle, and HIP2B on the bottom. Pictures were taken on days 1, 2, 3, 5, and 7 at 200× magnification.

[3] = system: streptozotcin-treated mice rendered diabetic; experiment: Repeated study in streptozotocin-treated diabetic mice with HIP2 and Optimized HIP2B; type: in vivo, mouse; conditions: for Total Islet Mass (μm2) / Total Islets: Table 3; for Total Islet Mass (% increase) / Total Islets (% increase): Table 3, vs placebo
Source text: Differences between the two groups of HIP2B and placebo were statistically significant for both an increase in total islet mass (p=0.040) and total islet numbers (p=0.032), with the HIP2B group indicating larger values for both islet mass (M=416714.67, SD=121,389.01) and islet number (M=94, SD=32.74) than for the placebo group (islet mass: M=127410.67, SD=96930.78, islet number: M=31.67, SD=15.28).

[4] = system: ductal fraction of human pancreatic cells; experiment: HIP2B activity in human pancreatic ductal tissue culture (CK19, nuclei and insulin staining); type: cell-based; conditions: cultured 10 days in collagen matrix, treated every other day; FIG. 10
Procedure: The ductal fraction of human pancreatic cells were cultured for 10 days in a collagen matrix and then treated every other day with HIP2B. Cells were labeled by double antibody staining for CK 19, a marker for ductal tissue, and DAP1 staining to show nuclei and insulin.

[5] = target: T1, EXTL3 (Homo sapiens, UniProt O43909); experiment: Western blot of EXTL3 in cytosolic and nuclear fractions of PANC-1 cells; type: cell-based; conditions: PANC-1 cells in SFM; FIG. 14; without HIP nuclear EXTL3 observed at 6 hours
T1 construct: It was observed that EXTL3 is expressed in PANC-1 cells; endogenous in cells; host or cells: PANC-1 (human pancreatic ductal/epithelioid cell line)
T1 sequence (O43909 1-919): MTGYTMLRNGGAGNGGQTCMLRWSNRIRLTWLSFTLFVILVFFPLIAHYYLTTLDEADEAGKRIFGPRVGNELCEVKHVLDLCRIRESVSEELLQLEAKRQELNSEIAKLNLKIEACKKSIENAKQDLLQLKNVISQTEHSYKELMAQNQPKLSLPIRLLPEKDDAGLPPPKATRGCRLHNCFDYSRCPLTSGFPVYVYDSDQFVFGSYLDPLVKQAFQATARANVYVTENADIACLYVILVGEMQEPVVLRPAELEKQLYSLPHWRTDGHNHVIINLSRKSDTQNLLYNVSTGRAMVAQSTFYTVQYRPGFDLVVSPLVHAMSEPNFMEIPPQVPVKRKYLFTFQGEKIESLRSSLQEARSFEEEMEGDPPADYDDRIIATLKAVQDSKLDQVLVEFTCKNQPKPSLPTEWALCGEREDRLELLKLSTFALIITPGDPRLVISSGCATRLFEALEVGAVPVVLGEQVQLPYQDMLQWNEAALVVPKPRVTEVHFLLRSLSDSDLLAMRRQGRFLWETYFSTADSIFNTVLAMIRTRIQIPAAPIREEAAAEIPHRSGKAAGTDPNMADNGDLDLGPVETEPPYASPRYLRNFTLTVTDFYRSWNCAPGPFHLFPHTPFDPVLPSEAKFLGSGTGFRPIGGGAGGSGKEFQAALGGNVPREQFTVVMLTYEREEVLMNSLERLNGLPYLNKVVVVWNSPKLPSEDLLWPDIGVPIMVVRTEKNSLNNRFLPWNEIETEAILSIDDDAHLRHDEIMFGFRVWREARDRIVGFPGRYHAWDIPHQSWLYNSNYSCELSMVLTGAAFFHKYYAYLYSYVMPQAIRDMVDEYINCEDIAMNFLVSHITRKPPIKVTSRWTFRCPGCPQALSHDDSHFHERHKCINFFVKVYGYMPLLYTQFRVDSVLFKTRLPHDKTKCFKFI
Procedure: Western blot and immunofluorescence analyses of EXTL3 localization were performed in human PANC-1 cells grown under conditions that differentiate these cells into islet-like cells. EXTL3 is predominantly located on the external surface of the cytoplasmic membrane and its structure includes a single transmembrane region located inside of the cytoplasmic membrane. PANC-1 cells were grown in a standard growth medium or in a serum free medium (SFM) containing HIP.

[6] = target: T2, HIP receptor/EXTL3 (Homo sapiens, UniProt O43909); experiment: Cy3 immunofluorescence of HIP receptor/EXTL3 translocation in PANC-1 cells; type: cell-based; conditions: for HIP receptor/EXTL3 trafficking from cytoplasmic membrane to nucleus: trypsin and serum free medium, FIG. 12
T2 construct: It was observed that EXTL3 is expressed in PANC-1 cells; endogenous in cells; host or cells: PANC-1 (human pancreatic ductal/epithelioid cell line)
T2 sequence (O43909 1-919): T1 sequence (O43909 1-919)
Procedure: Impact of HIP2B and HIP2 on HIP Receptor. To provide evidence that EXTL3 interacts with HIP, an experiment was conducted where human ductal cell line PANG-1 was used as a source of EXTL3. Using an antibody directed against EXTL3, PANC-1 cells were immunostained after being grown under conditions that differentiate these cells into islet-like cells. PANC-1 cells were grown in a standard growth medium containing 10% fetal bovine serum, or in a serum free medium (SFM) or SFM containing HIP.
The receptor for Human ProIslet Peptide was labeled using a double antibody method in a stable human pancreatic cell line. The first antibody was a rabbit polyclonal and the second was a goat-anti-rabbit labeled with Cy3 fluorescent dye.
These cells grow normally in serum free media and when treated with trypsin, are destabilized and made competent to undergo developmental changes. Cells were cultured in serum free media (SFM) with and without HIP, and in serum free media with trypsin (TSFM).
When treated with HIP under stable conditions, no changes result. When treated with HIP under developmentally competent conditions, the labeled receptor responds to the presence of HIP by being encapsulated by the cytoplasmic membrane and moving to the nuclear membrane where the signals for differentiation are received.
HIP stimulates the receptor membrane bound protein to be engulfed by the cytoplasmic membrane and transported to the nuclear membrane under adjusted exposure.

[7] = system: human pancreatic ductal tissue; experiment: Insulin levels by radioimmunoassay in human pancreatic ductal fraction cultures; type: cell-based; conditions: human ductal tissue cultured with peptide; treated day 10 and 12, lysed after 1 week; vs negative control
Procedure: In Vitro Proof of Concept of HIP Activity. Human pancreatic islet and ductal fractions were cultured over 10 days and then treated in a blinded study. Radioimmunoassay methods were used to measure insulin levels in the human pancreatic cultures treated with a scrambled peptide serving as a negative control, HIP3, HIP1, HIP2 and hamster-derived INGAP serving as a positive control. Peptides were synthesized (95% pure, research grade).
Duplicate cultures were treated in both ductal and islet fractions of human pancreatic tissue on day 10 and day 12 and then lysed for detection of insulin content after 1 week of treatment HIP peptides, control and INGAP. During 10-day culture, the insulin production goes down and then after treatment with HIP peptides, insulin is produced again.
The ductal and islet tissue were separated using the Ricordi method. Neither ductal cell nor islet culture was completely homogeneous in nature. […] The studies were repeated with similar findings shown in the following chart, with as much as a four-fold increase in insulin levels by radioimmunoassay among human ductal tissue cultured with HIP2.
The ductal fraction graph as shown in FIG. 2 depicts the insulin levels on the y axis as measured by radioimmunoassay after incubation in culture with human pancreatic ductal tissue. […]

[8] = system: mice rendered diabetic with streptozotocin; experiment: Streptozocin diabetic mouse study of HIP3, HIP1, HIP2 and hamster INGAP; type: in vivo; conditions: for total islet numbers vs placebo (significance): FIG. 6, p=0.022; for total islet mass vs placebo (significance): FIG. 6, p=0.05; for Total Islet Mass (μm2) / Total Islets: Table 2, initial study; for Total Islets: histology of pancreata; for Total Islet Mass (% increase) / Total Islets (% increase): Table 2, vs placebo; for islet area: placebo 142,394, p=0.05, FIG. 6
Procedure: In Vivo Studies. HIP3, HIP1, HIP2 and hamster INGAP have been the subject of in vivo studies in mice. […] The subject number was selected to yield a sufficient number of diabetic animals for the study and animals were randomly assigned to study groups. All animals were dosed via intraperitoneal injections twice daily (am and pm) for 28 consecutive days. The timing of dose administration remained consistent (±2 hours) during the dosing phase.
Mice were injected intraperitoneally with streptozocin at 40 mg/kg in citrate buffer, pH 4.5, on 5 consecutive days in an attempt to render them diabetic. […] If the blood glucose level in any animal rose to above 400 mg/dL, the animal was treated with insulin. Every 3 days, at the same time each day, a nick was made on the tail and a drop of blood was collected. Glucose measurements were determined using a glucose meter. Group assignments and dose levels were as follows in Table 1:
Study endpoints included the following: changes in glucose; changes in insulin requirements; and histology of post-mortem pancreata.

[9] = 250 μg intraperitoneal twice daily, 28 days

Compound | glucose levels during the study [1] | cell morphology changes through 7 days [2] | Total Islet Mass (μm2) [3] | Total Islets [3] | Total Islet Mass (% increase) [3] [%] | Total Islets (% increase) [3] [%] | EXTL3 translocation by Western blot [5] | HIP receptor/EXTL3 trafficking from cytoplasmic membrane to nucleus [6] | lower mean glucose vs control [8, 9] [%] | total islet numbers vs placebo (significance) [8] | total islet mass vs placebo (significance) [8] | Total Islet Mass (μm2) [8] [μm2] | Total Islets [8] | Total Islet Mass (% increase) [8] [%] | Total Islets (% increase) [8] [%] | islet area [8] | further results
C[C@@H](O)CCCCn1c(=O)c2c(ncn2C)n(C)c1=O [LSF, lysophylline, reference compound] | gradual elevations in glucose |  |  |  |  |  |  |  |  |  |  |  |  |  |  |  | 
Ac-Ile-Gly-Leu-His-Asp-Pro-Thr-Gln-Gly-Thr-Glu-Pro-Asn-Gly-NH2 (Ac-IGLHDPTQGTEPNG-NH2) [HIP2B] | steadily improved glucose levels | deviate significantly from their initial appearance | 416,715 μm2 | 94 | 398 | 168 | enhancing EXTL3 translocation from the cytoplasmic membrane to the nucleus | stimulated traffic from the HIP receptor on the cytoplasmic membrane into the nucleus |  |  |  |  |  |  |  |  | morphological differences vs control on day 7 ([2]; 200×, FIG. 9A): histologically more differentiated cells; rise in the total number of islets compared to placebo-treated mice ([3]; fold): three-fold; islet number (M) ([3]; mean, SD=32.74, placebo M=31.67, p=0.032): 94; islet mass (M) ([3]; mean, SD=121,389.01, placebo M=127410.67, p=0.040): 416714.67; islet size vs placebo-treated mice ([3]; not statistically significant (t=0.708, p=0.518)): normally sized islets were generated; insulin expression after treatment [4]: induced insulin expression in otherwise insulin negative cells; interaction with receptor/EXTL3 and trafficking to nucleus, compared with HIP2 [6]: as effective as HIP2
IGLHDPTQGTEPNG [HIP2] | steadily improved glucose levels | deviate significantly from their initial appearance | 202,955 μm2 | 65 | 143 | 86 | enhancing EXTL3 translocation from the cytoplasmic membrane to the nucleus | stimulated traffic from the HIP receptor on the cytoplasmic membrane into the nucleus | 29.4 | significantly increased total islet numbers | significantly greater total islet mass | 2161782 | 454 | 153 | 62 | 360,297 μm(2) | increase in insulin levels by radioimmunoassay [7]: four-fold; day by which mice were completely insulin-free ([8]; 250 μg intraperitoneal twice daily, 28 days, FIG. 4): ≤ 21 days
IGLHDPTQGTEPNGE [HIP3] |  |  |  |  |  |  |  |  | 57.3 | significantly increased total islet numbers | significantly greater total islet mass | 1703513 | 410 | 99 | 46 | 283,918 μm(2) | 
WIGLHDPTQGTEPNG [HIP1] |  |  |  |  |  |  |  |  | 14.7 |  |  |  |  |  |  |  | 
